Data on eight molecules can be found in ChEMBL document CHEMBL3232840, “Anti-proliferative activity of 2,6-dichloro-9- or 7-(ethoxycarbonylmethyl)-9H- or 7H-purines against several human solid tumour cell lines” (Eur J Med Chem, 2014).

Assay [1] relates to MCF7. As to the kind of experiment: Antiproliferative activity against human MCF7 cells after 3 days by sulforhodamine-B colorimetric assay. To be noted: MCF7, 72 h. The format is functional, cell-based.
The test system of assay [2] is HCT-116. As to the kind of experiment: Antiproliferative activity against human HCT116 cells after 3 days by sulforhodamine-B colorimetric assay. The format is functional, cell-based. Conditions: HCT-116, 72 h. On the technique in general: In SRB staining, fixed cells bind dye roughly in proportion to their protein.
Assay [3] is described as follows: Antiproliferative activity against human G361 cells after 3 days by sulforhodamine-B colorimetric assay. The format is functional, cell-based. To be noted: G-361, 72 h.
Assay [4] deals with A-375. As to the kind of experiment: Antiproliferative activity against human A375 cells after 3 days by sulforhodamine-B colorimetric assay. The format is functional, cell-based. Conditions: A-375, 72 h.
Assay [5] deals with HCT-116. As to the kind of experiment: Cell cycle arrest human HCT116 cells assessed as accumulation at G2/M phase at IC50 after 24 hrs by flow cytometry (reference value: 17.02 +/- 1.40 % ). The format is functional. On the technique in general: Flow cytometry measures light scatter and fluorescence of single cells or particles in a stream.
Assay [6] relates to A-375. As to the kind of experiment: Cell cycle arrest human A375 cells assessed as accumulation at G2/M phase at IC50 after 24 hrs by flow cytometry (reference value: 12.42 +/- 0.70 % ). The format is functional.
Assay [7] deals with MCF7. As to the kind of experiment: Induction of apoptosis in human MCF7 cells at IC50 after 24 hrs by annexin V-FITC/PI-based flow cytometry (reference value: 10.80 +/- 0.85 % ). The format is functional.
Assay [8] deals with HCT-116. Description: Cell cycle arrest human HCT116 cells assessed as accumulation at S phase at IC50 after 24 hrs by flow cytometry (reference value: 38.26 +/- 1.40 % ). The format is functional.
The test system of assay [9] is HCT-116. Description: Induction of apoptosis in human HCT116 cells at IC50 after 24 hrs by annexin V-FITC/PI-based flow cytometry (reference value: 7.27 +/- 1.57 % ). The format is functional.
The test system of assay [10] is MCF7. Description: Cell cycle arrest human MCF7 cells assessed as accumulation at G2/M phase at IC50 after 24 hrs by flow cytometry (reference value: 50.91 +/- 1.15 % ). The format is functional.
Assay [11] concerns MCF7. Description: Cell cycle arrest human MCF7 cells assessed as accumulation at G0/G1 phase at IC50 after 24 hrs by flow cytometry (reference value: 34.58 +/- 0.09 % ). The format is functional.
Assay [12] deals with A-375. Description: Induction of apoptosis in human A375 cells at IC50 after 24 hrs by annexin V-FITC/PI-based flow cytometry (reference value: 6.83 +/- 0.40 % ). The format is functional.
Assay [13] concerns A-375. Description: Cell cycle arrest human A375 cells assessed as accumulation at G0/G1 phase at IC50 after 24 hrs by flow cytometry (reference value: 57.97 +/- 0.93 % ). The format is functional.
The subject of assay [14] is MCF7. As to the kind of experiment: Cell cycle arrest human MCF7 cells assessed as accumulation at S phase at IC50 after 24 hrs by flow cytometry (reference value: 14.50 +/- 1.06 % ). The format is functional.
Assay [15] relates to A-375. As to the kind of experiment: Cell cycle arrest human A375 cells assessed as accumulation at S phase at IC50 after 24 hrs by flow cytometry (reference value: 29.60 +/- 0.78 % ). The format is functional.
Assay [16] has as its system HCT-116. Description: Cell cycle arrest human HCT116 cells assessed as accumulation at G0/G1 phase at IC50 after 24 hrs by flow cytometry (reference value: 44.70 +/- 0.38 % ). The format is functional.

Each structure is given as a SMILES string.

The IC50 is the concentration that gives 50% inhibition. A lower IC50 goes with inhibition by little substance.

As for `CCOC(=O)Cn1c(=O)[nH]cc(F)c1=O`, the IC50 in the assay on MCF7 [1] was 30.5 µM; in the assay on HCT-116 [2], 22.6 µM; in assay [3] it was 25.4 µM; with A-375 [4] it was 50.9 µM.
The like results for `CCOC(=O)Cn1cnc2ncnc(Cl)c21` were, in that order, 49.8 µM, 68 µM, 21.4 µM and 14.5 µM.
Taken in the same sequence, the figures for `CCOC(=O)Cn1cnc2c(Br)ncnc21` were 14.1 µM, 23.5 µM, 15.8 µM and 13.4 µM.
For `CCOC(=O)Cn1cnc2c(Cl)ncnc21`, the IC50 with MCF7 [1] worked out at 35.1 µM; in the assay with HCT-116 [2] it was 5.27 µM; in [3] it was 21.4 µM; in the assay on A-375 [4], 18.9 µM.
Take `CCOC(=O)Cn1cnc2nc(Cl)nc(Cl)c21`: the half-maximal inhibitory concentration (IC50) was 5.63 µM in the assay on MCF7 [1], 6.36 µM with HCT-116 [2], 5.67 µM in assay [3] and 4.98 µM in the assay with A-375 [4]. The Activity in the assay with HCT-116 [5] was determined as 28.47%; with A-375 [6], 9.34%; in the assay with MCF7 [7], 24.1%; in the assay with HCT-116 [8] it was 37.93%; in the assay on HCT-116 [9], 17.03%; in the assay on MCF7 [10] it was 47.19%. For the same molecule, the Activity is given as 34.54% in the assay with MCF7 [11]; 27.13% with A-375 [12]; 70.55% in the assay on A-375 [13]; 18.27% in the assay with MCF7 [14]; 20.1% with A-375 [15]; 33.58% in the assay on HCT-116 [16].
As for `CCOC(=O)Cn1cnc2c(Cl)nc(Cl)nc21`, the IC50 in the assay on MCF7 [1] amounted to 3.93 µM; in the assay with HCT-116 [2] it was 6.2 µM; in [3] it was 3.06 µM; with A-375 [4] it was 1.18 µM. Moreover, the Activity in the assay on HCT-116 [5] is 17.31%; with A-375 [6], 12.73%; with MCF7 [7] it was 20.53%; in the assay on HCT-116 [8], 36.75%; with HCT-116 [9], 20.2%; in the assay on MCF7 [10] it was 54.63%. The Activity is 28.17% in the assay with MCF7 [11]; 35.37% in the assay on A-375 [12]; 58.48% in the assay on A-375 [13]; 15.39% in the assay on MCF7 [14]; 28.78% in the assay with A-375 [15]; 45.93% in the assay with HCT-116 [16].
Regarding `CCOC(=O)Cn1cc(F)c(=O)[nH]c1=O`, the IC50 with MCF7 [1] amounted to 25.2 µM; in the assay on HCT-116 [2], 24.6 µM; in [3] it was 29 µM; with A-375 [4], 38.4 µM.
Taken in the same sequence, the figures for `CCOC(=O)Cn1cnc2ncnc(Br)c21` were 20.2 µM, 55.7 µM, 18.3 µM and 26.7 µM.
